Experimental data from ChEMBL document CHEMBL1255556, “6-Alkoxyisoindolin-1-one based dopamine D2 partial agonists as potential antipsychotics” (Bioorg Med Chem Lett, 2010).

What was measured:
[1] = target: 5-hydroxytryptamine receptor 2A (Homo sapiens, UniProt P28223); assay: Binding affinity to human 5HT2A receptor
[2] = target: T1, 5-hydroxytryptamine receptor 1A (Homo sapiens, UniProt P08908); assay: biochemical
T1 sequence (P08908 whole entry): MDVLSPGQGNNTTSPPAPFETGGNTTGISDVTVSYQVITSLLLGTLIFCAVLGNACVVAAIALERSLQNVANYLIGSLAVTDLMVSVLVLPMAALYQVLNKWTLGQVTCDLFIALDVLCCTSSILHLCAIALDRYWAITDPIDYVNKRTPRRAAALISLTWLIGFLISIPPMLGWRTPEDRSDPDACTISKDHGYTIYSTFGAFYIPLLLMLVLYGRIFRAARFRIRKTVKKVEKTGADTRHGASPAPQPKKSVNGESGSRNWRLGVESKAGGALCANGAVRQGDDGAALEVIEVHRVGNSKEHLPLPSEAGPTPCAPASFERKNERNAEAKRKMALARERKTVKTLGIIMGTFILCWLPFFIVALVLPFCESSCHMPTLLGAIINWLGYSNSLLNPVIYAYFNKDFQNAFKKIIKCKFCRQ
Description: Displacement of [3H]-8-OH-DPAT from human 5HT1A receptor expressed in HeLa cells

[3] = target: T1, 5-hydroxytryptamine receptor 1A; assay: Binding affinity to human 5HT1A receptor expressed in HeLa cells by scintillation proximity assay; format: cell-based
[4] = target: T2, Sodium-dependent serotonin transporter (Homo sapiens, UniProt P31645); assay: Displacement of [3H]-citalopram from human serotonin transporter expressed in HEK 293 cells by scintillation proximity assay; format: cell-based, HEK293
[5] = target: T2, Sodium-dependent serotonin transporter; assay: Displacement of [3H]-citalopram from human serotonin transporter expressed in HEK 293 cells; format: cell-based, HEK293
[6] = target: Voltage-gated inwardly rectifying potassium channel KCNH2 (Homo sapiens, UniProt Q12809)
Voltage-gated inwardly rectifying potassium channel KCNH2, sequence (Q12809 whole entry): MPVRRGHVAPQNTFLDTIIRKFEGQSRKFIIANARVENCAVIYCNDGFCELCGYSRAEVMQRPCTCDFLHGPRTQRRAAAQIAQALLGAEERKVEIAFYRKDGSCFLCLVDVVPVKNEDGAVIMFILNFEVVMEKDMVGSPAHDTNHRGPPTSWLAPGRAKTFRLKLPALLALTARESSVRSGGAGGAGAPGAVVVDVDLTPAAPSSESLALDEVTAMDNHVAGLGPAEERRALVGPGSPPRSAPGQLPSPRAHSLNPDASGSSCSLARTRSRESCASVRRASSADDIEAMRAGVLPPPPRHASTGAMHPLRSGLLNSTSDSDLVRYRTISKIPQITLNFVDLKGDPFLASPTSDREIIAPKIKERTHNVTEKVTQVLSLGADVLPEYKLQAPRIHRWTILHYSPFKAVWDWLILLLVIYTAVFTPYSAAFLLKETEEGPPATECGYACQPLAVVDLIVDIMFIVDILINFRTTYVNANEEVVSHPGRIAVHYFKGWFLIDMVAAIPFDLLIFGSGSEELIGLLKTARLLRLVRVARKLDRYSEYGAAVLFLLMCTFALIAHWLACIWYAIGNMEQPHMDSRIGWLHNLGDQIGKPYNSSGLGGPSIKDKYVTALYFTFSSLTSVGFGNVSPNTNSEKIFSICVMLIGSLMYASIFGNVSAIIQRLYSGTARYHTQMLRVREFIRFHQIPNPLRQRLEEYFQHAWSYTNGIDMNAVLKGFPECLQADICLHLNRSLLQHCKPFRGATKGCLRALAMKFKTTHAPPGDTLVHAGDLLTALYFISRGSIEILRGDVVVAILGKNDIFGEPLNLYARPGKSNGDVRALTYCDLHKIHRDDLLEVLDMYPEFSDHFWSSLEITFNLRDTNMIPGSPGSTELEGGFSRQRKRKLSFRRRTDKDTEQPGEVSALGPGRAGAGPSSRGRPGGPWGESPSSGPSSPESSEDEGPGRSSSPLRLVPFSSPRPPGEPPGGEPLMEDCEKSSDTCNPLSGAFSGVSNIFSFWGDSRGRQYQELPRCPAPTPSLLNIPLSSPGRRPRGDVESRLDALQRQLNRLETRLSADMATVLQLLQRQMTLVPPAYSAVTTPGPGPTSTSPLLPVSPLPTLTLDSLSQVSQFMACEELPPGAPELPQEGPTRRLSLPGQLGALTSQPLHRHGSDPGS
Description: Displacement of [3H]dofetilide from human ERG

T2 sequence (P31645 whole entry): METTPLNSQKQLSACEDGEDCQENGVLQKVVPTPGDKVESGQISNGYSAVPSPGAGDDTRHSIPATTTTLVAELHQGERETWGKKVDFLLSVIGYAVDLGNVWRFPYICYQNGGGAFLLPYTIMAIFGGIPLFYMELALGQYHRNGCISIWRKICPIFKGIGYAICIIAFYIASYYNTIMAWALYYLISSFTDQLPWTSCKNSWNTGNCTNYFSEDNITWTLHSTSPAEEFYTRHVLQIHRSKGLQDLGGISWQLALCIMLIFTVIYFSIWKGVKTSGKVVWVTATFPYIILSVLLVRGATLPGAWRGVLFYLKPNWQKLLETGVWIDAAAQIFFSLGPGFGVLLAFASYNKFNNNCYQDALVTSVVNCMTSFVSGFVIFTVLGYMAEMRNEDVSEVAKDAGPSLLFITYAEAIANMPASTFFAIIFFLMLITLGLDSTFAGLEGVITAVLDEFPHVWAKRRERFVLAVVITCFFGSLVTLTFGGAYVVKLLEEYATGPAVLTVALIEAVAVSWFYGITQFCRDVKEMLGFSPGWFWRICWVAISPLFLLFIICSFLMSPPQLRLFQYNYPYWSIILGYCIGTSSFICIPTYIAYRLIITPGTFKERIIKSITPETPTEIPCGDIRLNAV
5-hydroxytryptamine receptor 2A, sequence (P28223 whole entry): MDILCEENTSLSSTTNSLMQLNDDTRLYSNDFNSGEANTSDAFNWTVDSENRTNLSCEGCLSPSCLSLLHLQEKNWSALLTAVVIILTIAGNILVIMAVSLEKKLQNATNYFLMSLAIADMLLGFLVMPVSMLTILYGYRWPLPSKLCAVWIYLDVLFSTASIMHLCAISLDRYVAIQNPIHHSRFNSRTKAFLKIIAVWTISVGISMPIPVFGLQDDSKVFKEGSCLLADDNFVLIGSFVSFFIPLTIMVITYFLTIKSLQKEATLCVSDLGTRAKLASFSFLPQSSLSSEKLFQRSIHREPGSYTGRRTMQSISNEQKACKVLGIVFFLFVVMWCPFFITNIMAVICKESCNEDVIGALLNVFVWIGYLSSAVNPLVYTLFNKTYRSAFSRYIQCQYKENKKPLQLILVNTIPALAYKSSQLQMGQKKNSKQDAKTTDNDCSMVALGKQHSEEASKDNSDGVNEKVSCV

| SMILES | Ki [1] [nM] | Ki [2] [nM] | Ki [3] [nM] | Ki [4] [nM] | Ki [5] [nM] | Ki [6] [nM] |
| --- | --- | --- | --- | --- | --- | --- |
| O=C1NCc2ccc(OCCCCN3CCN(c4cccc5ccc(F)cc45)CC3)cc21 | 11.4 | 0.838 | – | – | – | – |
| O=C1NCc2ccc(OCCCN3CCN(c4cccc5c4CCO5)CC3)cc21 | 4.29 | – | 1.46 | – | – | – |
| O=C1NCc2cc(Cl)c(OCCCN3CCN(c4cccc5ccccc45)CC3)cc21 | 34.4 | – | 0.814 | 67.7 | – | – |
| O=C1NCc2ccc(OCCCN3CCN(c4cccc5c4CCCC5)CC3)cc21 | 4.86 | – | 0.269 | – | – | – |
| O=C1NCc2cc(F)c(OCCCCN3CCN(c4cccc5ccc(F)cc45)CC3)cc21 | 10 | – | 1.77 | – | 110 | – |
| O=C1NCc2ccc(OCCCCN3CCN(c4cccc5cccc(F)c45)CC3)c(F)c21 | 0.568 | – | 2.09 | 48.1 | 57.2 | – |
| O=C1NCc2cc(F)c(OCCCCN3CCN(c4cccc5ccccc45)CC3)cc21 | 13 | – | 0.637 | – | 30.8 | – |
| O=C1NCc2ccc(OCCCN3CCN(c4cccc5c4CCC5)CC3)cc21 | 3.16 | – | > 4.04 | – | – | – |
| O=C1NCc2ccc(OCCCN3CCN(c4cccc5ccc(F)cc45)CC3)c(F)c21 | 0.904 | – | < 0.205 | 447 | 1770 | – |
| O=C1NCc2ccc(OCCCCN3CCN(c4cccc5c4CCO5)CC3)cc21 | 53.4 | – | 1.45 | – | – | – |
| O=C1NCc2ccc(OCCCCN3CCN(c4cccc5c4CCC5)CC3)cc21 | 10.1 | – | 0.74 | – | – | – |
| O=C1NCc2ccc(OCCCN3CCN(c4cccc5ccc(F)cc45)CC3)cc21 | 3.37 | 0.0447 | – | – | – | – |
| O=C1NCc2ccc(OCCCN3CCN(c4cccc5c4COCC5)CC3)cc21 | 11.1 | 0.108 | – | – | – | – |
| O=C1NCc2ccc(OCCCN3CCN(c4cccc5cc(F)ccc45)CC3)cc21 | 3.54 | 1.54 | – | – | – | 439 |
| O=C1NCc2ccc(OCCCCN3CCN(c4cccc5c4OCCC5)CC3)cc21 | 17.1 | – | 0.863 | – | – | – |
| O=C1NCc2ccc(OCCCN3CCN(c4cccc5cc(F)ccc45)CC3)c(F)c21 | 5.41 | – | 3.04 | 24.7 | 37.4 | – |
| O=C1NCc2cc(Cl)c(OCCCCN3CCN(c4cccc5cccc(F)c45)CC3)cc21 | 25.3 | – | 1.68 | 45.6 | – | – |
| O=C1NCc2cc(F)c(OCCCN3CCN(c4cccc5ccccc45)CC3)cc21 | 32.1 | – | 0.671 | – | 54.6 | – |
| O=C1NCc2ccc(OCCCN3CCN(c4cccc5cccc(F)c45)CC3)c(F)c21 | 3.45 | – | < 0.14 | – | 160 | – |
| O=C1NCc2ccc(OCCCCN3CCN(c4cccc5cc(F)ccc45)CC3)cc21 | 9.53 | 13.4 | – | – | – | 969 |
| Cc1c(OCCCCN2CCN(c3cccc4cccc(F)c34)CC2)ccc2c1C(=O)NC2 | 3.85 | – | 2.61 | 292 | – | – |
| O=C1NCc2ccc(OCCCCN3CCN(c4cccc5c4COCC5)CC3)cc21 | 5.44 | 0.279 | – | – | – | – |
| Cc1cc2c(cc1OCCCN1CCN(c3cccc4ccccc34)CC1)C(=O)NC2 | 55.9 | – | 0.67 | 1040 | – | – |
| O=C1NCc2ccc(OCCCCN3CCN(c4cccc5cc(F)c(F)cc45)CC3)cc21 | – | 1.3 | – | – | – | – |
| Cc1c(OCCCN2CCN(c3cccc4cc(F)ccc34)CC2)ccc2c1C(=O)NC2 | 12.5 | – | 1.08 | 21.4 | – | – |
| O=C1NCc2cc(F)c(OCCCN3CCN(c4cccc5cccc(F)c45)CC3)cc21 | 1.19 | – | < 0.521 | – | 15.6 | – |
| O=C1NCc2cc(F)c(OCCCCN3CCN(c4cccc5cccc(F)c45)CC3)cc21 | 3.49 | – | 0.118 | 42.6 | 10.5 | – |
| O=C1NCc2ccc(OCCCN3CCN(c4cccc5cccc(F)c45)CC3)cc21 | – | 0.0141 | – | – | – | 1290 |
| O=C1NCc2ccc(OCCCCN3CCN(c4cccc5c4COC5)CC3)cc21 | 126 | – | 6.88 | – | – | – |
| O=C1NCc2ccc(OCCCN3CCN(c4cccc5cccc(F)c45)CC3)c(Cl)c21 | 3.55 | – | 0.312 | 230 | – | – |
